Assay results from patent publication US20240238212A1, “LIPID COMPOUNDS AND LIPID NANOPARTICLE COMPOSITIONS” (SUZHOU ABOGEN BIOSCIENCES CO., LTD., priority 2022, published 2024).
One block for each compound: values may come before it.

Key:
[1] = Encapsulation efficiency of lipid nanoparticles (Quant-it Ribogreen RNA assay); type: physicochemical; conditions: LNP comprising the compound, hEPO mRNA
Description: (§1) Briefly, a cationic lipid provided herein, DSPC, cholesterol, and PEG-lipid were solubilized in ethanol at a molar ratio of 50:10:38.5:1.5, and mRNA were diluted in 10 to 50 mM citrate buffer, pH=4. The LNPs were prepared at a total lipid to mRNA weight ratio of approximately 10:1 to 30:1 by mixing the ethanolic lipid solution with the aqueous mRNA solution at a volume ratio of 1:3 using a microfluidic apparatus, total flow rate ranging from 9-30 mL/min. Ethanol were thereby removed and replaced by DPBS using dialysis. Finally, the lipid nanoparticles were filtered through a 0.2 μm sterile filter.
(§2) Lipid nanoparticle size were determined by dynamic light scattering using a Malvern Zetasizer Nano ZS (Malvern UK) using a 173° backscatter detection mode. The encapsulation efficiency of lipid nanoparticles were determined using a Quant-it Ribogreen RNA quantification assay kit (Thermo Fisher Scientific, UK) according to the manufacturer's instructions.

[2] = Apparent pKa of LNP formulations (TNS fluorescence assay); type: physicochemical; conditions: LNP formulation, TNS assay (Table 2)
Description: As reported in literature, the apparent pKa of LNP formulations correlates with the delivery efficiency of LNPs for nucleic acids in vivo. The apparent pKa of each formulation was determined using an assay based on fluorescence of 2-(p-toluidino)-6-napthalene sulfonic acid (TNS). LNP formulations comprising of cationic lipid/DSPC/cholesterol/DMG-PEG (50/10/38.5/1.5 mol %) in PBS were prepared as described above. TNS was prepared as a 300 μM stock solution in distilled water. LNP formulations were diluted to 0.1 mg/mL total lipid in 3 mL of buffered solutions containing 50 mM sodium citrate, 50 mM sodium phosphate, 50 mM sodium borate, and 30 mM sodium chloride where the pH ranged from 3 to 9. An aliquot of the TNS solution was added to give a final concentration of […] and following vortex mixing fluorescence intensity was measured at room temperature in a Molecular Devices Spectramax iD3 spectrometer using excitation and mission wavelengths of 325 nm and 435 nm. A sigmoidal best fit analysis was applied to the fluorescence data and the pKa value was measured as the pH giving rise to half-maximal fluorescent intensity.

[3] = Lipid nanoparticle size and polydispersity by dynamic light scattering; type: physicochemical; conditions: LNP comprising the compound, hEPO mRNA; for Size (nm): cationic lipid/DSPC/cholesterol/PEG-lipid 50:10:38.5:1.5
Description: as §1, §2

[4] = system: human erythropoietin (hEPO) mRNA expression; experiment: Animal Study 1: hEPO mRNA LNPs i.v. in mice, serum EPO by ELISA; type: in vivo; conditions: female ICR mice, 0.5 mg/kg tail vein injection, blood e.g. 6 hours post administration; relative to MC3 LNP
Description: Lipid nanoparticles comprising compounds in the following table encapsulating human erythropoietin (hEPO) mRNA were systemically administered to 6-8 week old female ICR mice (Xipuer-Bikai, Shanghai) at 0.5 mg/kg dose by tail vein injection and mice blood were sampled at specific time points (e.g., 6 hours) post administration. In addition to the aforementioned tested groups, lipid nanoparticles comprising dilinoleylmethyl-4-dimethylaminobutyrate (DLin-MC3-DMA, usually abbreviated to MC3) encapsulating hEPO mRNA were similarly administered at the same dose to age and gender comparative groups of mice as a positive control.
Mice were euthanized by CO2 overdoses after the last sampling time point. Serum were separated from total blood by centrifugation at 5000 g for 10 minutes at 4 T, snap-frozen and stored at −80 T for analysis. ELISA assay were carried out using a commercial kit (DEP00, R&D systems) according to manufacturer's instructions.
Characteristics of tested lipid nanoparticles, including EPO expression levels over MC3 measured from the tested group are listed in the table below.

SMILES: CCCCCCCC(=O)OCC(CCCCN(CCO)CCCCC(COC(=O)CCCCCCC)COC(=O)CCCCCCC)COC(=O)CCCCCCC [Compound 1]
EPO expression over MC3 [4]: A (≥2)

SMILES: CCCCCCCC/C=C\CCCCCCCC(=O)OCCCCCCN(CCCCC(COC(=O)CCCCCCC)COC(=O)CCCCCCC)C1CCC(O)CC1 (stereo not shown) [Compound 38]
Encapsulation efficiency [1]: 87.69% | Apparent pKa [2]: 6.799 | Polydispersity [3]: 0.06385 | Size (nm) [3]: 100.3 nm | EPO expression over MC3 [4]: B (≥1 and <2)

SMILES: CCCCCCCCC(CCCCCC)C(=O)OCC(CCCCN(CCO)CCCCC(COC(=O)CCCCCCC)COC(=O)CCCCCCC)COC(=O)C(CCCCCC)CCCCCCCC (stereo not shown) [Compound 12]
Encapsulation efficiency [1]: 87.61% | Polydispersity [3]: 0.053 | Size (nm) [3]: 56.95 nm | EPO expression over MC3 [4]: D (<0.1)

SMILES: CCCCCCCCCCCCCCCCCC(=O)OCCCCCCN(CCCCC(COC(=O)CCCCCCC)COC(=O)CCCCCCC)CCCNc1c(N(C)C)c(=O)c1=O [Compound 41]
Encapsulation efficiency [1]: 95.98% | Polydispersity [3]: 0.08791 | Size (nm) [3]: 55.42 nm

SMILES: CCCCCCCC(=O)OCC(CCCCN(CCCCC(COC(=O)CCCCCCC)COC(=O)CCCCCCC)CCN(CCO)C1CCC1)COC(=O)CCCCCCC [Compound 2]
EPO expression over MC3 [4]: A (≥2)

SMILES: CCCCCCCCCCCCOC(=O)CCCCCN(CCO)CCCCCC(=O)OCC(COC(=O)CCCCCCC)COC(=O)CCCCCCC [Compound 4]
Apparent pKa [2]: 6.943 | EPO expression over MC3 [4]: C (≥0.1 and <1)

SMILES: CCCCCCCCCCC(=O)OCCCCCCN(CCCCC(COC(=O)CCCCCCC)COC(=O)CCCCCCC)CCCNc1c(N(C)C)c(=O)c1=O [Compound 40]
Encapsulation efficiency [1]: 93.31% | Polydispersity [3]: 0.1163 | Size (nm) [3]: 66.72 nm

Now from value to compound, other results behind:

Encapsulation efficiency [1]: 94.90% | Apparent pKa [2]: 6.679 | Polydispersity [3]: 0.109 | Size (nm) [3]: 63.7 nm
SMILES: CCCCCCCC(=O)OCC(CCCCN(CCCCC(COC(=O)CCCCCCC)COC(=O)CCCCCCC)C1CC(CO)C1)COC(=O)CCCCCCC (stereo not shown) [Compound 54]
EPO expression over MC3 [4]: B (≥1 and <2)

Encapsulation efficiency [1]: 96.01% | Apparent pKa [2]: 6.338 | Polydispersity [3]: 0.040 | Size (nm) [3]: 62.56 nm
SMILES: CCCCCCCC(=O)OCC(COC(=O)CCCCCCC)COC(=O)CCCCCCCN(CCO)CCCCCCCC(=O)OCC(COC(=O)CCCCCCC)COC(=O)CCCCCCC [Compound 65]
EPO expression over MC3 [4]: A (≥2)

Encapsulation efficiency [1]: 95.70% | Apparent pKa [2]: 6.171 | Polydispersity [3]: 0.037 | Size (nm) [3]: 67.7 nm
SMILES: CCCCCCCC(=O)OCC(COC(=O)CCCCCCC)COC(=O)CCCCCN(CCCCCCCO)CCCCCC(=O)OCC(COC(=O)CCCCCCC)COC(=O)CCCCCCC [Compound 70]
EPO expression over MC3 [4]: B (≥1 and <2)

Encapsulation efficiency [1]: 83.93% | Polydispersity [3]: 0.117 | Size (nm) [3]: 67.07 nm
SMILES: CCCCCCCC(=O)OCC(CCCCN(CCCCC(COC(=O)CCCCCCC)COC(=O)CCCCCCC)CCC1(O)CCCCC1)COC(=O)CCCCCCC [Compound 50]

Encapsulation efficiency [1]: 86.40% | Polydispersity [3]: 0.14 | Size (nm) [3]: 61.88 nm
SMILES: CCCCCCCC(=O)OCC(CCCCN(CCCCC(COC(=O)CCCCCCC)COC(=O)CCCCCCC)CC1(CO)CCC1)COC(=O)CCCCCCC [Compound 45]

Encapsulation efficiency [1]: 86.17% | Polydispersity [3]: 0.126 | Size (nm) [3]: 74.63 nm
SMILES: CCCCCCCC(=O)OCC(CCCCN(CCCCC(COC(=O)CCCCCCC)COC(=O)CCCCCCC)[C@@H](CO)C(C)C)COC(=O)CCCCCCC [Compound 44]

Encapsulation efficiency [1]: 73.99% | Polydispersity [3]: 0.135 | Size (nm) [3]: 68.21 nm
SMILES: CCCCCCCC(=O)OCC(CCCCN(CCCCC(COC(=O)CCCCCCC)COC(=O)CCCCCCC)[C@H](CO)C(C)C)COC(=O)CCCCCCC [Compound 46]

Encapsulation efficiency [1]: 83.82% | Polydispersity [3]: 0.111 | Size (nm) [3]: 69.44 nm
SMILES: CCCCCCCC(=O)OCC(CCCCN(CCCCC(COC(=O)CCCCCCC)COC(=O)CCCCCCC)CC1(CO)CCCC1)COC(=O)CCCCCCC [Compound 49]
